This is an account of results in patent US10561637B2, “Methods for treating angiogenesis related disorder” (KAOHSIUNG MEDICAL UNIVERSITY, priority 2017, dated 2020).

The subject of series [1] is human EPCs. Description: tube formation assay (capillary-like structures) in human EPCs. The class given is cell-based. Conditions: 5 and 10 μM, 24 hours, phase-contrast microscope. From the text:
The data of five independent experiments are expressed as the mean±mean standard deviation. As compared with the control group, * means p<0.05; *** means p<0.001.
(§1) Mitella formosana (Hayata) Masam. is a perennial herb of Saxifragaceae, a native plant of Taiwan. In the present invention, three kinds of tannin compounds, PGG, tellimagrandin I, and tellimagrandin II, found in the compounds extracted from Mitella formosana by using Bioassay-guided fractionation, inhibited the proliferation of EPCs in a concentration dependent manner. […] The results of tube formation assay confirmed that these three compounds (10 μM) inhibited the tube formation of EPCs in different degrees (FIG. 2B). […] Importantly, CAM-angiogenesis model and mice Matrigel-plus model were used to verify the anti-angiogenic effect of tellimagrandin II in vivo.

Series [2] has as its system human EPCs. Kind of series: Sulforhodamine B (SRB) cell proliferation assay in human EPCs. It counts as cell-based. Conditions: 48th hour. On the procedure: as §1
Another series concerns chicken embryo. Description: chorioallantoic membrane (CAM) angiogenesis assay. It counts as in vivo. Conditions: CAM-angiogenesis model.
Source text: (§2) Sorafenib is a multiple kinase inhibitor, which is used as a positive control in the in vivo anti-angiogenesis assay.
as §1

In series [3] the test system is human EPCs. Description: lactate dehydrogenase (LDH) release assay in human EPCs. The class given is cell-based. Conditions: 10-20 μM, 24th hour.
Source text: The data of five independent experiments are expressed as the mean±mean standard deviation. As compared with the control group, * means p<0.05; ** means p<0.05; *** means p<0.001.
as §1

The test system of another series is mice. Kind of series: Matrigel plug model of capillary formation. It counts as in vivo.
Source text: as §2, §1

Entries after “also recorded” stand apart in the source; their conditions may differ.

Turning to `O=C(OC[C@H]1O[C@@H](OC(=O)c2cc(O)c(O)c(O)c2)[C@H](OC(=O)c2cc(O)c(O)c(O)c2)[C@@H](OC(=O)c2cc(O)c(O)c(O)c2)[C@@H]1OC(=O)c1cc(O)c(O)c(O)c1)c1cc(O)c(O)c(O)c1` [PGG, 1,2,3,4,6-penta-O-galloyl-β-D-glucose], the “tube formation of EPCs, concentration dependence” value in the series with human EPCs [1] is “inhibited the tube formation of EPCs in a concentration dependent manner”. Besides, in the series on human EPCs [2], the “proliferation of EPCs” value is on record as “suppress the proliferation of EPCs in a concentration dependent manner”.

As to `O=C(OC1O[C@@H]2COC(=O)c3cc(O)c(O)c(O)c3-c3c(cc(O)c(O)c3O)C(=O)O[C@H]2[C@H](OC(=O)c2cc(O)c(O)c(O)c2)[C@H]1OC(=O)c1cc(O)c(O)c(O)c1)c1cc(O)c(O)c(O)c1` (some centres unmarked) [tellimagrandin II], the “tube formation of EPCs, concentration dependence” value in the series on human EPCs [1] was “inhibited the tube formation of EPCs in a concentration dependent manner”. Further, in the series with chicken embryo, the “in vivo neovascularization in the chicken embryo” value is given as “inhibited in vivo neovascularization in the chicken embryo in a concentration dependent manner”. Besides, the “LDH release (cytotoxicity)” value in the series on human EPCs [3] is listed as “LDH release was not induced”. For the same compound, the “proliferation of EPCs” value in the series on human EPCs [2] was “suppress the proliferation of EPCs in a concentration dependent manner; also recorded: exhibited the most potent effect”. Moreover, the “formation of capillaries in mice” value with mice is recorded as “effectively inhibited the formation of capillaries in mice”.

`O=C(O[C@H]1[C@@H]2OC(=O)c3cc(O)c(O)c(O)c3-c3c(cc(O)c(O)c3O)C(=O)OC[C@H]2OC(O)[C@@H]1OC(=O)c1cc(O)c(O)c(O)c1)c1cc(O)c(O)c(O)c1` (some centres unmarked) [tellimagrandin I]: in the series on human EPCs [2], the “proliferation of EPCs” value is reported as “suppress the proliferation of EPCs in a concentration dependent manner”.
